Assay results taken from patent publication EP0802184B1, “N-Benzyl-2-phenylindoles as estrogenic agents” (Wyeth, priority 1996, dated 1997).

Columns and labels:
Ishikawa cells = test: Ishikawa Cell Alkaline Phosphatase Assay; type: cell-based, human; settings: for % Activation (Compound + 1 nM 17β-estradiol): 10^-6 M compound + 10^-9 M 17β-estradiol; for % Activation (Compound + 1 nM 17β-estradiol) / % Activation: 48 h; for % Activation: compound alone, percent of response related to 1 nM 17β-estradiol
Description: Cells were treated for 48 h prior to assay. […] Sample population for at each dose was n=8. […] Plates are placed at -80°C for a minimum of 15 minutes. Plates are thawed at 37°C followed by the addition of 150μL of 0.1 M Tris-HCl, pH 9.8, containing 4 mM para-nitrophenylphosphate (pNPP) to each well (final concentration, 3 mM pNPP). Absorbance and slope calculations were made using the […] Application program (Bio-Tek Instruments, Inc., Winooski, VT). […] Various compounds were assayed for estrogenic activity by the alkaline phosphatase method and corresponding ED50 values (95% C.I.) were calculated. The four listed in the following were used as reference standards: A description of such methods is provided by Holinka, […]., Kuramoto, H. and Gurpide, E. (1986) Effects of steroid hormones and antisteroids on alkaline phosphatase activity in human endometrial cancer cells (Ishikawa Line). Cancer Research, 46:2771-2774, and by […]. and by […] simple and sensitive microtiter plate estrogen bioassay based on stimulation alkaline phosphatase in Ishikawa cells; […] Endocrinology, 6:2757-2762.

estrogen receptor [1] = target: T1, estrogen receptor (Homo sapiens, UniProt P03372); test: 2X VIT ERE Transfection Assay (Infection Luciferase Assay); type: cell-based; settings: 24 h; for % Activation with 1 nM 17β-estradiol: 1 uM compound + 1 nM 17β-estradiol (test for estrogen antagonism); for % Activation: compound alone (1 uM), compared to 17β-estradiol
T1 sequence (P03372 1-595): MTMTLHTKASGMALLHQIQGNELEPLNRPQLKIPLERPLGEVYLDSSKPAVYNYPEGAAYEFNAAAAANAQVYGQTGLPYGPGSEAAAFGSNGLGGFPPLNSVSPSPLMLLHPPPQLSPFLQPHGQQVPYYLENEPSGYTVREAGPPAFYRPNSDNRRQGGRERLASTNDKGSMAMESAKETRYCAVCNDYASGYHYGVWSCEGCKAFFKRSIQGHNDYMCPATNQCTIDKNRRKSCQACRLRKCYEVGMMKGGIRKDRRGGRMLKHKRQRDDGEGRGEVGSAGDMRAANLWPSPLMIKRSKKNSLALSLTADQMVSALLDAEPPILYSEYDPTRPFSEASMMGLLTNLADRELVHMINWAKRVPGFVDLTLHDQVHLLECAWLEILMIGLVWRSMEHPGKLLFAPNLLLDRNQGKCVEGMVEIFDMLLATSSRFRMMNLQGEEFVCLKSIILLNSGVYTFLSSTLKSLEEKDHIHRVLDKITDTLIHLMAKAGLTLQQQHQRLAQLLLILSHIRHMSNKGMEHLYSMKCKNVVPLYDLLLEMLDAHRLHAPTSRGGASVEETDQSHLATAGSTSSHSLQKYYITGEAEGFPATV
Description: Chinese Hamster Ovary cells (CHO) which had been stably transfected with the human estrogen receptor were maintained in DMEM + 10% fetal bovine serum (FBS). 48h prior to treatment the growth medium was replaced with DMEM lacking phenol red + 10% dextran coated charcoal stripped FBS (treatment medium). Cells were plated at a density of 5000 cells/well in 96-well plates containing 200 µL of medium/well.
Reporter DNA (Promega plasmid pGL2 containing two tandem copies of the vitellogenin ERE in front of the minimal thymidine kinase promoter driving the luciferase gene) was combined with the B-galactosidase expression plasmid pCH110 (Pharmacia) and carrier DNA (pTZ18U) in the following ratio: • 10uG of reporter DNA • 5uG of pCH110DNA • 5 uG of pTZ18U • 20 uG of DNA/1 mL of transfection solution
20 uL of this mixture was added to each well of cells and remained on the cells for 16 h. […] Each treatment condition was performed on 8 wells (n=8) which were incubated for 24 h prior to the luciferase assay.
After removing the PBS, 25 uL of Promega lysis buffer was added to each well and allowed to stand at room temperature for 15 min, followed by 15 min at -80°C and 15 min at 37°C. 20 uL of lysate was transferred to an opaque 96 well plate for luciferase activity evaluation and the remaining lysate (5 uL) was used for the B-galactosidase activity evaluation (normalize transfection). The luciferan substrate (Promega) was added in 100 uL aliquots to each well automatically by the luminometer and the light produced (relative light units) was read 10 seconds after addition.
To the remaining 5 uL of lysate 45 uL of PBS was added. Then 50 uL of Promega B-galactosidase 2X assay buffer was added, mixed well and incubated at 37°C for 1 hour. A plate containing a standard curve (0.1 to 1.5 milliunits in triplicate) was set up for each experimental run. The plates were analyzed on a Molecular Devices spectrophotometric plate reader at 410 nm. The optical densities for the unknown were converted to milliunits of activity by mathematical extrapolation from the standard curve.
The luciferase data was generated as relative light units (RLUs) accumulated during a 10 second measurement and automatically transferred to a JMP (SAS Inc) file where background RLUs were subtracted. The B-galactosidase values were automatically imported into the file and these values were divided into the RLUs to normalize the data. The mean and standard deviations were determined from a n=8 for each treatment. […] These techniques are described by Tzukerman, M.T., Esty, A., Santiso-Mere, D., Danielian, P., Parker, M.G., Stein, R.B., Pike, J.W. and McDonnel, D.P. (1994). Human estrogen receptor transactivational capacity was determined by both cellular and promoter context and mediated by two functionally distinct intramolecular regions (see Molecular Endocrinology, 8:21-30).

estrogen receptor [2] = target: T1, estrogen receptor; test: In vitro estrogen receptor binding assay (competition with [3H]-17β-estradiol); design: expressed in transfected cells; host or cells: CHO cells (ribosome-free cytosol); settings: relative to 17β-estradiol=100; cytosol of CHO cells overexpressing the estrogen receptor
Description: CHO cells overexpressing the estrogen receptor were grown in 150 mm^2 dishes in DMEM + 10% dextran coated charcoal, stripped fetal bovine serum. The plates were washed twice with PBS and once with 10mM Tris-HCl, pH 7.4, 1mM EDTA. Cells were harvested by scraping the surface and then the cell suspension was placed on ice. Cells were disrupted with a hand-held motorized tissue grinder using two, 10-second bursts. The crude preparation was centrifuged at 12,000g for 20 minutes followed by a 60 minute spin at 100,000g to produce a ribosome free cytosol. The cytosol was then frozen and stored at -80°C. Protein concentration of the cytosol was estimated using the BCA assay with reference standard protein.
100uG/100uL of the receptor preparation was aliquoted per well. […] The plate was incubated at room temperature for 2.5 h. At the end of this incubation period 150 uL of ice-cold dextran coated charcoal (5% activated charcoal coated with 0.05% 69K dextran) was added to each well and the plate was immediately centrifuged at 99g for 5 minutes at 4°C. 200 uL of the supernatant solution was then removed for scintillation counting. Samples were counted to 2% or 10 minutes, whichever occurs first. […] Also, wells containing radioactivity but no cytosol were processed with charcoal to estimate unremovable DPM of [^3H]
Counts per minute (CPM) of radioactivity were automatically converted to disintegrated per minute (DPM) by the Beckman LS 7500 Scintillation Counter using a set of quenched standards to generate a H# for each sample.
For the generation of IC50 curves, % binding is plotted vs compound. […] For a description of these methods, see Hulme, E.C., ed. 1992. Receptor-Ligand Interactions: A Practical Approach. IRL Press, New York.(see especially chapter 8).

| SMILES | % Activation (Compound + 1 nM 17β-estradiol) (Ishikawa cells) | % Activation (Ishikawa cells) | % Activation with 1 nM 17β-estradiol (estrogen receptor [1]) | % Activation (estrogen receptor [1]) | Estrogen Receptor Affinity (reported as RBA: 17β-estradiol=100) (estrogen receptor [2]) | EC50 (Ishikawa cells; Ishikawa cells, reference standards, read-out: ED50 values (95% C.I.), estrogenic activity by the alkaline phosphatase method) |
| --- | --- | --- | --- | --- | --- | --- |
| Cc1c(-c2ccc(O)cc2)n(Cc2ccc(/C=C/C(=O)N3CCCC3)cc2)c2ccc(O)cc12 [Example 9, (E)-Pyrrolidino-3-{4-[5-hydroxy-2-(4-hydroxy-phenyl)-3-methyl-indol-1-ylmethyl]-phenyl}-acrylamide] | 11% | 3% | 8% | 6% |  |  |
| O=C(c1ccc(OCCN2CCCCC2)cc1)c1c(-c2ccc(O)cc2)sc2cc(O)ccc12 [raloxifene, reference compound] | 5% |  |  |  |  |  |
| CCCCN(CCCC)C(=O)/C=C/c1ccc(Cn2c(-c3ccc(O)cc3)c(C)c3cc(O)ccc32)cc1 [Example 11, (E)-N, N-Dibutyl-3-{4-[5-hydroxy-2-(4-hydroxy-phenyl)-3-methyl-indol-1-ylmethyl]-phenyl}-acrylamide] | 11% | 6% | 12% | 8% | 80 |  |
| CNC(=O)/C=C/c1ccc(Cn2c(-c3ccc(O)cc3)c(C)c3cc(O)ccc32)cc1 [Example 15, (E)-N, Methyl-3-{4-[5-hydroxy-2-(4-hydroxy-phenyl)-3-methyl-indol-1-ylmethyl]-phenyl}-acrylamide] | 5% | 0% | 31% | 15% | 53 |  |
| Cc1c(-c2ccc(O)cc2)n(Cc2ccc(C#CCN3CCCCC3)cc2)c2ccc(O)cc12 [Example 22, 2-(4-Hydroxy-phenyl)-3-methyl-1-[4-(3-piperidin-1-yl-prop-1-ynyl)-benzyl]-1H-indol-5-ol] | 23% | 27% | 19% | 17% | 23 |  |
| CC/C(=C(\c1ccccc1)c1ccc(OCCN(C)C)cc1)c1ccccc1 [tamoxifen, reference compound] | 45% |  |  |  |  |  |
| Cc1c(-c2ccc(O)cc2)n(Cc2ccc(/C=C/C(N)=O)cc2)c2ccc(O)cc12 [Example 14, (E)-3-{4-[5-hydroxy-2-(4-hydroxy-phenyl)-3-methyl-indol-1-ylmethyl]-phenyl}-acrylamide] | 14% | 2% | 57% | 19% | 32 |  |
| Cc1c(-c2ccc(O)cc2)n(Cc2ccc(C#CCN(C)C)cc2)c2ccc(O)cc12 [Example 21, 2-(4-Hydroxy-phenyl)-3-methyl-1-[4-(3-N, N-dimethyl-1-yl-prop-1-ynyl)-benzyl]-1H-indol-5-ol] | 34% | 34% | 34% | 34% | 53 |  |
| Cc1c(-c2ccc(O)cc2)n(Cc2ccc(/C=C/C(=O)N(C)C)cc2)c2ccc(O)cc12 [Example 10, (E)-N, N-Dimethyl-3-{4-[5-hydroxy-2-(4-hydroxy-phenyl)-3-methyl-indol-1-ylmethyl]-phenyl}-acrylamide] | 19% | 6% | 2% | 1% | 20 |  |
| Cc1c(-c2ccc(O)cc2)n(Cc2ccc(/C=C/C(=O)NC(C)(C)C)cc2)c2ccc(O)cc12 [Example 8, 1(E)-N-tert-butyl-3-{4-[5-hydroxy-2-(4-hydroxy-phenyl)-3-methyl-indol-1-ylmethyl]-phenyl}-acrylamide] | 22% | 10% | 78% | 6% | 40 |  |
| CCCCN(C)C(=O)/C=C/c1ccc(Cn2c(-c3ccc(O)cc3)c(C)c3cc(O)ccc32)cc1 [Example 12, (E)-N-Butyl, N'-methyl-3-{4-[5-hydroxy-2-(4-hydroxy-phenyl)-3-methyl-indol-1-ylmethyl]-phenyl}-acrylamide] | 16% | 7% | 24% | 13% | 114 |  |
| C[C@]12CC[C@@H]3c4ccc(O)cc4CC[C@H]3[C@@H]1CC[C@H]2O [17α-estradiol, reference compound] |  |  |  |  |  | 1.42 nM |
| Cc1c(-c2ccc(O)cc2)n(Cc2ccc(/C=C/C(=O)N3CCOCC3)cc2)c2ccc(O)cc12 [Example 13] | 9% | 7% | 17% | 8% |  |  |
